Experiments:
[1] = absolute recovery over vacuum-assisted evaporative concentration; higher = better recovery; conditions: enrichment method: VEC
Summary of the method: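 Water samples (influent 6 mL, effluent 15 mL, surface and nanopure water 60 mL) were spiked with standards before concentration, after concentration or not at all, at 200 ng/L (nanopure/surface) or 1000 ng/L (wastewater), with class- and compound-specific adjustments. They were evaporated at 55 °C and 20 mbar to about 0.3 mL, brought to 0.4 mL and centrifuged. Internal standards were added afterwards and samples were analysed by LC-HRMS/MS. Absolute recovery was (response ratio pre − unspiked)/(post − unspiked) × 100, using averages of ≥ 2 replicates.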

[2] = absolute recovery over mixed-bed multilayer solid-phase extraction; higher = better recovery; conditions: enrichment method: SPE
Summary of the method: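 Elution from a three-layer mixed-bed cartridge used basic followed by acidic ethyl acetate/methanol, after loading either 1000 mL of unfiltered nanopure water or 100–250 mL of wastewater that had been set to pH 6.5 and glass-fibre filtered. Standards went in before or after extraction, or were left out, at 200 ng/L (water) or 1000 ng/L (wastewater), with class exceptions. Internal standards were added afterwards, and measurement was by liquid chromatography with high-resolution tandem mass spectrometry in both ionisation modes. For absolute recovery, background-corrected response ratios of pre-spiked samples were compared with those of post-spiked samples and averaged over at least two replicates.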

[3] = LC retention time (Atlantis T3, 5-95% MeOH gradient, 0.1% formic acid); higher = more retained / less polar
Summary of the method: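 Retention times refer to reference standards measured by liquid chromatography with high-resolution tandem mass spectrometry. Separation was on an Atlantis T3 C18 column (3 × 150 mm, 3 μm) at 0.3 mL/min with a 5 to 95% methanol gradient over 17.5 min, both solvents carrying 0.1% formic acid. Positive and negative electrospray were run separately on a QExactive Plus, and TraceFinder peak integration (5 ppm tolerance, at least three points per peak) was reviewed by hand.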

SMILES | absolute recovery ([1]; wastewater effluent) [%] | absolute recovery ([1]; wastewater influent) [%] | absolute recovery ([2]; nanopure water) [%] | absolute recovery ([2]; surface water) [%] | absolute recovery ([2]; wastewater effluent) [%] | absolute recovery ([2]; wastewater influent) [%] | LC retention time [3] [min]
COC(=O)c1csc(C)c1S(=O)(=O)[N-]C(=O)n1nc(OC)n(C)c1=O [Thiencarbazone] | 110 | 106 | 104 | 93.9 | 92.6 | 87 | 16.5
CCC(CO)NCC[NH2+]C(CC)CO (configuration not stated) [Ethambutol] | 102 | 124 | 75.8 | 64.3 | 66.3 | 66.2 | 3.04
CN(C)C(=O)Nc1ccc(Cl)cc1 [Monuron] | 103 | 106 | 99.5 |  | 94.3 | 90.3 | 16.9
Cc1cccc(C)c1N(Cn1cccn1)C(=O)C(=O)[O-] [Metazachlor-OXA] | 108 | 103 | 95.6 | 97.5 | 92.4 | 87.4 | 17.1
Cc1ncc2n1-c1ccc(Cl)cc1C(c1ccccc1F)=NC2 [Midazolam] | 102 | 106 | 87.5 | 90.5 | 89.6 | 83 | 14.5
Cc1cccc(C)c1N(Cn1cccn1)C(=O)CCl [Metazachlor] | 104 | 96 | 96.5 | 97 | 93.4 | 94.5 | 18.3
CC(=O)OCC(=O)C1(O)C(C)CC2C3CCC4=CC(=O)C=CC4(C)C3(F)C(O)CC21C (configuration not stated) [Betamethasone 21-acetate C] | 92.7 | 85.2 | 93.1 | 89.4 | 89 | 98.3 | 19.6
C[NH+](C)CCOC(c1ccccc1)c1ccccc1 [Diphenhydramine] | 104 | 103 | 88.9 | 97 | 91.1 | 77.8 | 14.6
CCC1OC(=O)C(C)C(OC2CC(C)(OC)C(O)C(C)O2)C(C)C(OC2OC(C)CC([NH+](C)C)C2O)C(C)(O)CC(C)C[NH+](C)C(C)C(O)C1(C)O (configuration not stated) [Azithromycin] | 97.9 |  | 77.4 | 93.7 | 90.8 | 96.7 | 13
O=C([O-])c1ccc(-c2ccccc2-c2nn[nH]n2)cc1 [Valsartan-acid] |  | 104 | 96.4 | 101 |  | 95.2 | 16.4
Cc1cccc(C)c1OCC(C)[NH3+] (configuration not stated) [Mexiletine] | 97.3 | 99.1 | 69.1 | 68.7 | 67.6 | 80.7 | 13.2
COc1ccc(C(=O)c2ccccc2)c(O)c1 [Benzophenon-3 (=2-Hydroxy-4-methoxybenzophenon)] | 51.4 | 56.6 | 100 | 111 | 100 | 77.4 | 20.7
CSc1nc2cc(Oc3cccc(Cl)c3Cl)c(Cl)cc2[nH]1 [Triclabendazol] | 86.4 | 102 | 59.4 | 111 | 88.5 | 61.3 | 21.8
COc1cccc(C(=O)NN(C(=O)c2cc(C)cc(C)c2)C(C)(C)C)c1C [Methoxyfenozid] | 104 | 98.9 | 104 | 103 | 98.1 | 94.8 | 19.7
CSc1nc(N)nc(NC(C)(C)C)n1 [Irgarol-descyclopropyl] | 106 | 115 | 107 | 100 | 101 | 79 | 16.3
CCN(CC)C(=O)Nc1ccc(OCC(O)C[NH2+]C(C)(C)C)c(C(C)=O)c1 (configuration not stated) [Celiprolol] | 103 | 103 | 86.4 | 84.3 | 90.1 | 84.6 | 13
CON=C(C(=O)OC)c1ccccc1CON=C(C)c1cccc(C(F)(F)F)c1 [Trifloxystrobin] | 77.4 | 97.5 |  | 97.3 | 88.9 | 99.8 | 21.4
COc1ccc2c(c1)c(CC(=O)[O-])c(C)n2C(=O)c1ccc(Cl)cc1 [Indomethacin] | 104 | 98.9 | 93.9 | 95 | 91.2 | 91.5 | 20.8
C[NH+]1CCCC1c1cccnc1 (configuration not stated) [Nicotine] | 76.9 | 79.1 | 35.1 | 27.7 | 47.9 | 52.5 | 11.1
CS(=O)(=O)c1ccc(C(=O)[O-])c(Cl)c1 [Sulcotrion-CMBA] | 101 | 109 | 96.8 | 38 | 92.6 | 95.3 | 12.1
CCCN(CCC)c1c([N+](=O)[O-])cc(S(N)(=O)=O)cc1[N+](=O)[O-] [Oryzalin] | 105 | 91.7 | 97 | 102 | 94 | 109 | 20.2
CC(C)Nc1nc(N)nc(O)n1 [Atrazin-desethyl-2-hydroxy] | 107 | 93.7 | 76.8 | 74.2 | 71.2 | 92.3 | 7.67
Nc1nc(=O)c2ncn(CCC(CO)CO)c2[nH]1 [Penciclovir] | 97.1 | 104 | 84.2 | 78.3 | 83 | 91.8 | 7.67
Cc1cccc(C)c1NC(=O)C1CCCC[NH+]1C (configuration not stated) [Mepivacaine] | 106 | 103 | 78.4 | 74.7 | 80 | 89.6 | 11.6
NC(=O)N1c2ccccc2CC(=O)c2ccccc21 [Oxcarbazepin] | 87.8 | 78.5 | 84.4 | 84.7 | 82.7 | 83.7 | 16.4
CC(CCC(=O)[O-])C1CCC2C3C(O)CC4CC(O)CCC4(C)C3CCC12C (configuration not stated) [Ursodeoxycholic-acid] | 97 |  | 73.8 |  | 79.2 |  | 21.1

SMILES | absolute recovery ([1]; wastewater effluent) [%] | absolute recovery ([1]; wastewater influent) [%] | absolute recovery ([2]; nanopure water) [%] | absolute recovery ([2]; surface water) [%] | absolute recovery ([2]; wastewater effluent) [%] | absolute recovery ([2]; wastewater influent) [%] | LC retention time [3] [min]
C[NH+](C)CCC=C1c2ccccc2COc2ccc(CC(=O)[O-])cc21 [Olopatadine] | 100 | 102 | 82.8 | 86.5 | 91.2 | 84.9 | 14.9
O=C([O-])C[N-]S(=O)(=O)C(F)(F)C(F)(F)C(F)(F)C(F)(F)C(F)(F)C(F)(F)C(F)(F)C(F)(F)F [FOSAA] | 117 |  | 60.5 | 85.9 | 76.6 | 32.2 | 22.2
CCCC(NC(C)C(=O)N1C(C(=O)[O-])CC2CCCCC21)C(=O)OCC (configuration not stated) [Perindopril] | 95 | 96.1 | 97.7 | 88.8 | 91.5 | 138 | 15.5
CNC(=O)ON=CC(C)(C)SC [Aldicarb] | 99.1 | 91.7 | 88.2 |  |  |  | 16
Cn1sc(Cl)cc1=O [5-Chloro-2-methyl-4-isothiazolin-3-on (=CMI)] | 65.2 |  | 85.1 | 56.7 | 66.5 |  | 12.4
NC(=O)Cc1ccc(OCC(O)C[NH3+])cc1 (configuration not stated) [Atenolol-desisopropyl] | 87.6 |  | 65.5 | 70.3 | 65.2 | 52.7 | 6.53
Nc1cn[nH+]c([O-])c1Cl [Chloridazon-desphenyl] | 102 | 98.3 | 58.5 | 67.9 | 70.2 | 72.3 | 7.56
CCC1OC(=O)C(C)C(OC2CC(C)(OC)C(O)C(C)O2)C(C)C(OC2OC(C)CC([NH+](C)C)C2O)C(C)(OC)CC(C)C(=O)C(C)C(O)C1(C)O (configuration not stated) [Clarithromycin] | 100 | 105 | 89.7 | 98.5 | 91 | 85.1 | 16.9
CC1(C(=O)Nc2ccc(O)c(Cl)c2Cl)CCCCC1 [Fenhexamid] | 92.1 | 96.3 | 102 |  |  | 97 | 20.1
Nc1nc(N)[nH+]c(NC2CC2)n1 [Cyromazin] | 101 | 104 | 83.7 |  | 88.1 | 91.5 | 7.27
CCCCc1[nH+]cc(C=C(Cc2cccs2)C(=O)[O-])n1Cc1ccc(C(=O)[O-])cc1 [Eprosartan] | 103 | 96.1 | 97.1 | 93.4 | 93.6 | 94.2 | 14.6
COCC(=O)N(c1c(C)cccc1C)C(C)C(=O)OC (configuration not stated) [Metalaxyl] | 103 | 97.8 | 96.6 | 95.8 | 93.6 | 94.7 | 18.4
CCCCOc1ccc(CC(=O)NO)cc1 [Bufexamac] | 93.4 | 71.9 | 88.6 | 83.9 | 83.3 | 84.7 | 17.9
C[NH+]=C([N-][N+](=O)[O-])NCc1cnc(Cl)s1 [Clothianidin] | 104 | 106 |  | 95.6 |  | 94.1 | 13.8
OC(Cn1cncn1)(Cn1cncn1)c1ccc(F)cc1F [Fluconazol] | 105 | 105 | 100 | 92.8 | 96.9 | 96.1 | 14.2
Cc1c(N)c(=O)n(-c2ccccc2)n1C [4-Aminopyrin (=4-Aminoantipyrin, 4-AA)] | 84.1 | 75.5 | 37.8 | 55.7 | 24.6 | 37.4 | 9.66
CCCC(C)(COC(N)=O)COC(=O)NC(C)C (configuration not stated) [Carisoprodol] | 104 | 102 | 99.3 | 97.9 | 93.1 | 92.4 | 18.1
COCC(=O)Nc1c(I)c(C(=O)NCC(O)CO)c(I)c(C(=O)N(C)CC(O)CO)c1I (configuration not stated) [Iopromid] | 108 | 90.1 | 86.3 | 79.5 |  | 65.9 | 10.1
CN(C(=O)CO)c1c(I)c(C(=O)NCC(O)CO)c(I)c(C(=O)NCC(O)CO)c1I (configuration not stated) [Iomeprol] | 109 | 108 | 73.5 | 67.8 | 66.5 | 52.4 | 8.92
CC12C=CC(=O)C=C1CCC1C2C(O)CC2(C)C1CCC2(O)C(=O)CO (configuration not stated) [Prednisolon] | 104 | 63.1 | 88 | 82.7 | 82.1 | 91.4 | 18
CC(Oc1ccc(Cl)cc1Cl)C(=O)[O-] (configuration not stated) [Dichlorprop] | 104 | 99.8 | 97.8 | 95.4 |  | 87.9 | 20.1
O=C(NCCN1CCOCC1)c1ccc(Cl)cc1 [Moclobemid] | 105 | 94 | 91.4 | 100 | 90.8 | 84.5 | 11.6
Cn1sccc1=O [2-Methyl-4-isothiazolin-3-one] | 93.6 | 27 | 12 | 11 | 11.7 | 17 | 7.95
CCOCN(C(=O)CCl)c1c(C)cccc1CC [Acetochlor B] | 83.4 | 76.8 | 94 | 93.3 | 91.1 | 91.6 | 20.4
C[NH+](C)CCCC1(c2ccc(F)cc2)OCc2cc(C#N)ccc21 (configuration not stated) [Citalopram] | 104 | 100 | 94.1 | 96.1 | 92.4 | 93.9 | 14.5
[NH3+]C(Cc1cc(I)c(O)c(I)c1)C(=O)[O-] [3-5-Diiodo-L-tyrosine] | 90.5 | 96.4 | 69.5 | 39.2 | 55.8 | 74.5 | 13.2

From the supplement of paper PMC6470124
